Measured values taken from patent publication US20240390502A1, “DELIVERY SYSTEMS FOR BIOACTIVE LIPIDS” (The Trustees of Columbia University in The City of New York, priority 2021, published 2024).

Tests used:
[1] = test system: brain mitochondria
Protocol: FIG. 2C is a western blot mean quantification for BAX 6A7 in naïve (n=6), saline (n=7) and NPD1 (n=8) at 4 h after ischemic injury.

[2] = test system: hypoxic-ischemic brain injury; test: hypoxic-ischemic brain injury mouse model, cerebral infarct volume; type: in vivo; conditions: direct acute administration of NPD1 (10 ng, 20 ng) after hypoxic-ischemic injury, compared to control (saline) group; FIG. 2A

SMILES: CC/C=C\C[C@H](O)\C=C/C=C/C=C/[C@H](O)C/C=C\C/C=C\CCC(=O)O [NPD1, neuroprotection D1]
- mitochondrial Ca2+ buffering capacity ([1]; NPD1 treatment after hypoxic-ischemic injury): preserved mitochondrial Ca2+ buffering capacity
- mitochondria-related cell death pathways ([1]; NPD1 treatment, BAX 6A7 western blot at 4 h after ischemic injury (FIG. 2C)): reduced mitochondria-related cell death pathways
- cerebral infarct volumes [2]: significant reduction in cerebral infarct volumes
